Source: patent publication US12364764B2, “Sustained release thermosetting gels comprising sodium channel blockers and the methods of making same” (Pacira Therapeutics, Inc., priority 2019, dated 2025)

Experiment: Measured drug load / API content of funapide gel formulations
Type: physicochemical

drug concentration that can be loaded within the thermosensitive hydrogel formulation: up to 20 mg/mL
SMILES: O=C1N(Cc2ccc(C(F)(F)F)o2)c2ccccc2[C@]12COc1cc3c(cc12)OCO3 [funapide]
